{"source": "paper PMC7562955", "about": "(Nature Communications, 2020)", "key": {"TLR7 [1]": {"test_system": "TLR7", "assay": "Glutaraldehyde crosslinking assay of ligand-induced TLR7 dimerization", "format": "biochemical, Monkey (Macaca mulatta)", "procedure": "The recombinant TLR7 proteins expressed in Drosophila S2 cells (Thermo Fisher Scientific) using Monkey (Macaca mulatta) TLR7 extracellular domain expression construct with N167Q, N399Q, N488Q and N799Q mutations and cleavable Z-loop and C-terminal protein A tag were prepared and were stored in a buffer containing 10 mM Tris-HCl pH 7.5 and 150 mM NaCl at concentrations of 10–15 mg ml^−1. Briefly, the purification steps included IgG affinity purification, the Z-loop and the protein A tag cleavage, and gel-filtration chromatography. Glycan-trimmed TLR7 proteins, expressed in the presence of 1.5 mg l^−1 kifunensine (Glycosyn) and treated by Endo Hf (New England Biolabs) were used for crystallization. Glycan-untrimmed proteins were used in ITC analysis, crosslinking assay, negative-staining EM and cryo-EM (200 kV microscopes) analyses. Glycan-trimmed TLR7 proteins with partially-uncleaved protein A tag were used for cryo-EM analysis using Tatan Krios (Supplementary Fig. 11).\nFor glutaraldehyde crosslinking assay (Fig. 2b), proteins were buffer exchanged into a buffer containing 10 mM HEPES-NaOH, pH 8.0, 150 mM NaCl and were concentrated to ~13 mg/ml using Amicon Ultra devices (Merck). Protein concentrations were adjusted to 25 µM using buffers containing 10 mM HEPES-NaOH, pH 7.0, 150 mM NaCl (for neutral condition) or 50 mM citrate-NaOH pH 5.0, 150 mM NaCl (for acidic condition). Cpd-3, Cpd-6 or Cpd-7 were added to final concentrations of 100 or 1000 µM. The reactions were started by adding glutaraldehyde (Wako) to a final concentration of 5 mM (for neutral condition) or 20 mM (for acidic condition), incubated at ambient temperature for 25 min and quenched by adding Tris-HCl pH 7.5 to a final concentration of 100 mM. Crosslinked samples were analyzed by non-reducing SDS-PAGE. Quantitative analysis of the SDS-PAGE gel image was performed with Image-J."}, "TLR7 [2]": {"biological_target": "T1, TLR7 (Homo sapiens, UniProt Q9NYK1)", "T1 sequence (Q9NYK1 27-1049)": "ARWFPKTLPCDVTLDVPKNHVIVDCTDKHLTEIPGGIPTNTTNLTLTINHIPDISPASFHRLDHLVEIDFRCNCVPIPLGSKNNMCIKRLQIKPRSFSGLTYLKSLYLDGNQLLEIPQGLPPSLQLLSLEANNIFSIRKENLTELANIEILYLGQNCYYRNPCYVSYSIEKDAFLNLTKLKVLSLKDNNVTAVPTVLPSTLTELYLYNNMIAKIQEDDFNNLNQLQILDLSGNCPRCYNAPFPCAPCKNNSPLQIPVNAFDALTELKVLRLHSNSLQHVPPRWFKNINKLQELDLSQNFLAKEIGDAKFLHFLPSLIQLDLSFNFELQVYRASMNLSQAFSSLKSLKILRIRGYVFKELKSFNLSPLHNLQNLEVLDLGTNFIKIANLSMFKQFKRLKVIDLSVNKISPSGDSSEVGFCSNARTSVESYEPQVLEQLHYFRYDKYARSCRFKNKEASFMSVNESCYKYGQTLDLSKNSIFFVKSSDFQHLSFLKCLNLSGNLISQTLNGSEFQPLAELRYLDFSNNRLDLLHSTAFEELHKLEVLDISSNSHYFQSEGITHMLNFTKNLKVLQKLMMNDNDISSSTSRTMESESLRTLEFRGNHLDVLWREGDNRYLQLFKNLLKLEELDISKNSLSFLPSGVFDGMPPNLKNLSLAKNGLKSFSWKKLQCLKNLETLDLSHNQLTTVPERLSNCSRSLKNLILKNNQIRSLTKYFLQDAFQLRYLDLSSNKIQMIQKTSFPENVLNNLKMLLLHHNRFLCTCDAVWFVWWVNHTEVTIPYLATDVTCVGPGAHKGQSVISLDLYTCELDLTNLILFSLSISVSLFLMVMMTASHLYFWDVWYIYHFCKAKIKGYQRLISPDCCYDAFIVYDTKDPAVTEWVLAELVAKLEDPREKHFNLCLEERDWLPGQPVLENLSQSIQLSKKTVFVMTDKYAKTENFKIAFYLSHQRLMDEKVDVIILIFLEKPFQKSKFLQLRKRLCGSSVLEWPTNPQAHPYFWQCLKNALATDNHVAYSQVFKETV", "assay": "Human TLR7 reporter gene agonistic activity assay", "format": "cell-based", "design": "host or cells: HEK293 (TLR7/NF-κB/SEAPorter)", "procedure": "Compounds were dissolved in dimethyl sulfoxide. Before stimulation with compound, Human TLR7 reporter cell line (Novus Biological) was seeded in 96-well microtiter plate (AGC techno glass) at 5 × 10^4 cells/well in DMEM (GIBCO) with 10% fetal bovine serum (GIBCO), and 10 ug/ml Blastcidin S HCl (GIBCO) and incubated at 37 °C in 5% CO2. The plates were incubated over-night and then stimulated with various concentrations of compound and R848. The plates were then incubated an additional 20 ± 1 h at 37 °C in 5% CO2 and then the secreted embryonic alkaline phosphatase (SEAP) activity was measured as activation of human TLR7. The SEAP activity was evaluated as follows: pNPP (Invitrogen, USA) was added to the incubated sample (50 μl/well); after 15 min, 4 M sodium hydroxide solution (nacalai tesque, Japan) was added thereto (50 μl/well) to quench the reaction; and the absorbance of each sample was measured at 405 nm with microplate reader SpectraMax M4 (Molecular Devices, USA)."}, "[3]": {"conditions": "pH 5.0, ligand + (100 or 1000 µM used)"}, "[4]": {"conditions": "pH 5.0, ligand ++ (100 or 1000 µM used)"}, "[5]": {"conditions": "pH 7.0, ligand + (100 or 1000 µM used)"}, "[6]": {"conditions": "pH 7.0, ligand ++ (100 or 1000 µM used)"}}}
{"smiles": "COCCOc1nc(N)c2[nH]c(=O)n(Cc3cccnc3)c2n1", "note": "[Cpd-3]", "values": [{"measurement": "ligand-induced TLR7 dimerization", "setting": "TLR7 [1]; neutral or acidic pH", "value": "induced almost complete dimerization under both neutral and acidic conditions"}, {"measurement": "Band intensity Dimer", "setting": "TLR7 [1]; [3]", "value": 16031.2}, {"measurement": "Band intensity Monomer", "setting": "TLR7 [1]; [3]", "value": 5165.8}, {"measurement": "Band intensity Dimer", "setting": "TLR7 [1]; [4]", "value": 16425.6}, {"measurement": "Band intensity Monomer", "setting": "TLR7 [1]; [4]", "value": 4634.68}, {"measurement": "Band intensity Dimer", "setting": "TLR7 [1]; [5]", "value": 17958.5}, {"measurement": "Band intensity Monomer", "setting": "TLR7 [1]; [5]", "value": 7371.24}, {"measurement": "Band intensity Dimer", "setting": "TLR7 [1]; [6]", "value": 17537.6}, {"measurement": "Band intensity Monomer", "setting": "TLR7 [1]; [6]", "value": 7105.24}]}
{"smiles": "CCOCc1nc2c(N)nc3ccccc3c2n1CC(C)(C)O", "note": "[R848, reference compound]", "values": [{"measurement": "activation of human TLR7, reporter signal", "setting": "TLR7 [2]; compound 0.001 nM (as headed)", "value": -0.0355}, {"measurement": "activation of human TLR7, reporter signal", "setting": "TLR7 [2]; compound 0.003 nM (as headed)", "value": -0.0898}, {"measurement": "activation of human TLR7, reporter signal", "setting": "TLR7 [2]; compound 0.01 nM (as headed)", "value": -0.0215}, {"measurement": "activation of human TLR7, reporter signal", "setting": "TLR7 [2]; compound 0.03 nM (as headed)", "value": 0.2447}, {"measurement": "activation of human TLR7, reporter signal", "setting": "TLR7 [2]; compound 0.1 nM (as headed)", "value": 1.76}, {"measurement": "activation of human TLR7, reporter signal", "setting": "TLR7 [2]; compound 0.3 nM (as headed)", "value": 3.124}, {"measurement": "activation of human TLR7, reporter signal", "setting": "TLR7 [2]; compound 1 nM (as headed)", "value": 3.25}, {"measurement": "activation of human TLR7, reporter signal", "setting": "TLR7 [2]; compound 3 nM (as headed)", "value": 3.172}, {"measurement": "activation of human TLR7, reporter signal", "setting": "TLR7 [2]; compound 10 nM (as headed)", "value": 3.25}, {"measurement": "activation of human TLR7, reporter signal", "setting": "TLR7 [2]; compound 30 nM (as headed)", "value": 3.234}, {"measurement": "activation of human TLR7, reporter signal", "setting": "TLR7 [2]; compound 100 nM (as headed)", "value": 3.25}]}
